{
  "source": "paper PMC10652874",
  "about": "“Investigation into the mechanism of action of the antimicrobial peptide epilancin 15X” (Frontiers in Microbiology, 2023)",
  "key": {"[1]": {"test_system": "LiaRS response in B. subtilis BSF2470", "details": "cited from earlier work", "excerpt": "(§1) To investigate the effect of epilancin 15X on the cell envelope, we employed the two-component LiaRS reporter system in B. subtilis (lipid II cycle interfering antibiotic response regulator and sensor; [Mascher et al., 2004]). Briefly, the LiaRS assay is a disk diffusion assay used to screen for the ability of compounds to induce β-galactosidase expression in engineered B. subtilis BSF2470 ([Mascher et al., 2004]). Molecules that produce a blue ring around the edge of the zone of growth inhibition are believed to interfere with the lipid II cycle ([Hachmann et al., 2009]). Most membrane disrup ..."}, "[2]": {"test_system": "LiaRS response in B. subtilis BSF2470", "assay": "LiaRS disk diffusion reporter assay (β-galactosidase, X-Gal)", "format": "cell-based, Bacillus subtilis", "details": "37°C overnight", "description": "The LiaRS response was determined via disk diffusion as described previously ([Mascher et al., 2004]). Briefly, B. subtilis strain BSF2470 was grown in LB supplemented with erythromycin (1 μg/mL) overnight at 37°C with shaking. A total of 20 μL of overnight culture was mixed with 100 μL of 20 mg/mL X-Gal (dissolved in DMF) and 5 mL of 0.7% soft LB agar then poured onto a 1.5% LB agar base. The plates were allowed to cool and dry at room temperature for 20 min. The desired molecule was either spotted on a filter paper disk and placed on top of the agar or directly spotted on the agar. The following molecules were tested: ampicillin, 0.5 μL on filter disk, 1 μL directly spotted, 100 mg/mL; compound 1771/LtaS-IN-1, 4 μL, 20 mM (dissolved in DMSO); epilancin 15X, 4 μL, 5 mM; vancomycin, 1 μL, 100 mg/mL; nisin, 4 μL, 2 mM; bacitracin, 4 μL on filter disk, 5 μL directly spotted, 100 mg/mL; water, 5 μL; magainin 2, 10 μL, 1 mM; melittin, 10 μL, 1 mM. The plate was incubated at 37°C overnight. After overnight incubation, the plate was imaged. Compound 1771 (CS-0114233) was purchased from ChemScene LLC.\nas §1, with “[…] The compound 1771, also called LtaS-IN-1, inhibits lipoteichoic acid (LTA) synthesis ([Richter et al., 2013]) and to the best of our knowledge has not been tested in the LiaRS assay.” for “Most membrane disrup ...”"}, "[3]": {"test_system": "S. carnosus TM300", "assay": "MIC determination in 96-well microtiter plate", "format": "cell-based, Staphylococcus carnosus", "details": "BHI, 37°C, 10^5 CFU/mL, OD600 after 18 h", "description": "(§2) MIC determination was performed in a 96-well microtiter plate as described previously ([Wu et al., 2019]). Sensitive bacterial culture was grown in the appropriate medium (BHI for S. carnosus; LB for B. subtilis) at 37°C overnight. The culture was diluted to 10^5 CFU/mL in medium in each well. Epilancin 15X or its analog was dissolved in water and serially diluted to obtain final concentrations of 20, 10, 5, 2.5, 1.25, 0.625, 0.3125, 0.156, 0.078, 0.039, 0.019, and 0.009 μM. OD600 readings were obtained after 18 h using a Synergy H4 Hybrid Multi-Mode Microplate Reader (BioTeK). Cell-free untreated medium, and untreated cell culture were used as negative controls. The MIC of nisin against B. subtilis BSF2470 was determined following the same methods."}, "[4]": {"test_system": "B. subtilis BSF2470 (1A980)", "assay": "MIC determination in 96-well microtiter plate", "format": "cell-based, Bacillus subtilis", "details": "LB, 37°C, 10^5 CFU/mL, OD600 after 18 h", "description": "as §2"}, "[5]": {"test_system": "S. carnosus TM300", "assay": "Membrane permeability study with propidium iodide (flow cytometry)", "format": "cell-based, Staphylococcus carnosus", "details": "S. carnosus TM300, 20 min exposure, 0.5x, 1x, 4x MIC, n = 3", "description": "(§3) Cultures of S. carnosus TM300 and B. subtilis BSF2470 were grown to OD600 1.0 and diluted to OD600 0.1 in fresh BHI or LB medium, respectively. The culture was then combined with a final concentration of 25 μM PI (ThermoFisher P3566), 1 mM HEPES, and 1 mM glucose. […] Another two tubes were prepared without antibiotic treatment as controls. The culture was analyzed with a BD Biosciences LSR II flow cytometer for S. carnosus and a BD Biosciences LSRFortessa for B. subtilis using excitation at 488 nm with an argon laser and measurement of emission through a band-pass filter at 695/40 nm. A minimum of 30,000 events were detected for each sample. The experiment was repeated three times, and the mean PI uptake value was determined. The results were calibrated such that the mean PI uptake from the 4x MIC nisin-treated cell culture was set as 100% PI uptake."}, "[6]": {"test_system": "B. subtilis BSF2470", "assay": "Membrane permeability study with propidium iodide (flow cytometry)", "format": "cell-based, Bacillus subtilis", "details": "B. subtilis BSF2470, 20 min exposure, 0.5x, 1x, 4x MIC, n = 3", "description": "as §3"}, "[7]": {"test_system": "S. carnosus TM300", "assay": "Bright field (Airyscan) microscopy", "format": "cell-based, Staphylococcus carnosus", "details": "S. carnosus TM300, 0.5 MIC"}, "[8]": {"test_system": "S. carnosus TM300", "assay": "Agar diffusion bioactivity assay with lipids in flanking wells", "format": "cell-based, Staphylococcus carnosus", "details": "S. carnosus TM300 on BHI agar, overnight", "description": "For agar diffusion antimicrobial activity assays, the autoclaved 1.5% agar was prepared in the appropriate medium and cooled in a 40°C water bath for 15 min. A total of 50 μL overnight culture of the sensitive strain was added to the agar and kept in the water bath. A total of 25 mL seeded agar was poured into a sterile OmniTray (Nunc) and allowed to solidify at room temperature for 30 min. An additional 35 mL of seeded agar was poured over the lower solidified agar layer. A sterile 96-well PCR plate was placed in the molten agar upper layer, and the agar was allowed to solidify at 25°C for 30 min. After sufficient solidification, the 96-well PCR plate was removed. Then 20 μL volume of each peptide was dispensed into the wells. Plates were left at 25°C for 30 min until the wells were dried, and the plates were incubated at 37°C overnight. The antibacterial activity was determined by the presence or absence of growth inhibition.\nFigure S5. (A) Zones of growt h inhibition of epilancin 15X a nd nisin A against S. carnosus TM30 0 grown on BHI agar plates. The indicated amounts of antibiotics were placed in the well shown in the center of the zone of inhibition. […]"}, "[9]": {"assay": "Liposome leakage assay using flow cytometry (HaloTag / AF488 ligand)", "format": "biochemical", "details": "1 μM peptide, 37°C, 1 h"}},
  "note": "Like-named read-outs stand apart in the source and are kept apart here. Where no end group is shown, it is not given here.",
  "data": [
    {"compound": "polymyxin", "values": [
      {"measurement": "LiaRS response", "setting": "[1]; ref Wex et al., 2021", "result": "do not induce a LiaRS response"}
    ]},
    {"compound": "Bacitracin", "values": [
      {"measurement": "LiaRS response (blue ring at the edge of the zone of inhibition)", "setting": "[2]", "result": "induce a LiaRS response"}
    ]},
    {"compound": "melittin", "values": [
      {"measurement": "LiaRS response (blue ring at the edge of the zone of inhibition)", "setting": "[2]", "result": "did not induce a LiaRS response"}
    ]},
    {"compound": "CC[C@@]1([C@@H]2O[C@@H]([C@H]3O[C@@](O)(CO)[C@H](C)C[C@@H]3C)C[C@@H]2C)CC[C@H]([C@]2(C)CC[C@]3(C[C@H](O)[C@@H](C)[C@@H]([C@@H](C)[C@@H](OC)[C@H](C)C(=O)O)O3)O2)O1", "note": "[monensin]", "values": [
      {"measurement": "LiaRS response", "setting": "[1]; ref Wex et al., 2021", "result": "do not induce a LiaRS response"}
    ]},
    {"compound": "O=C(COC(=O)Cc1coc2ccc3ccccc3c12)Nc1nnc(-c2ccccc2)o1", "note": "[LtaS-IN-1]", "values": [
      {"measurement": "LiaRS response (blue ring at the edge of the zone of inhibition)", "setting": "[2]", "result": "did not induce a blue zone"}
    ]},
    {"compound": "CC1(C)S[C@@H]2[C@H](NC(=O)[C@H](N)c3ccccc3)C(=O)N2[C@H]1C(=O)O", "note": "[ampicillin]", "values": [
      {"measurement": "LiaRS response (blue ring at the edge of the zone of inhibition)", "setting": "[2]", "result": "did not induce a LiaRS response"}
    ]},
    {"compound": "CN[C@H](CC(C)C)C(=O)N[C@H]1C(=O)N[C@@H](CC(N)=O)C(=O)N[C@H]2C(=O)N[C@H]3C(=O)N[C@H](C(=O)N[C@H](C(=O)O)c4cc(O)cc(O)c4-c4cc3ccc4O)[C@H](O)c3ccc(c(Cl)c3)Oc3cc2cc(c3O[C@@H]2O[C@H](CO)[C@@H](O)[C@H](O)[C@H]2O[C@H]2C[C@](C)(N)[C@H](O)[C@H](C)O2)Oc2ccc(cc2Cl)[C@H]1O", "note": "[vancomycin]", "values": [
      {"measurement": "LiaRS response (blue ring at the edge of the zone of inhibition)", "setting": "[2]", "result": "induce a LiaRS response"}
    ]},
    {"compound": "magainin 2", "values": [
      {"measurement": "LiaRS response (blue ring at the edge of the zone of inhibition)", "setting": "[2]", "result": "did not induce a LiaRS response"}
    ]},
    {"compound": "colistin", "values": [
      {"measurement": "LiaRS response", "setting": "[1]; ref Wex et al., 2021", "result": "do not induce a LiaRS response"}
    ]},
    {"compound": "nisin: lantibiotic, lipid II binding pore former, positive control (ITSISLCTPGCKTGALMGCNMKTATCHCSIHVSK; not fully specified (some residues, bridges); cysteine pairing not given here; UniProt P13068 24-57, looked up) [reference compound]", "values": [
      {"measurement": "MIC", "setting": "[3]", "result": 0.5, "unit": "µM"},
      {"measurement": "MIC", "setting": "[4]", "result": 0.625, "unit": "µM"},
      {"measurement": "PI uptake (membrane disruption)", "setting": "[5]", "result": "more substantial"},
      {"measurement": "PI uptake (membrane disruption)", "setting": "[6]", "result": "more substantial"},
      {"measurement": "LiaRS response (blue ring at the edge of the zone of inhibition)", "setting": "[2]", "result": "induce a LiaRS response"},
      {"measurement": "aggregation phenotype of cells (brightfield)", "setting": "[7]", "result": "Aggregation was not observed"},
      {"measurement": "antagonism of bioactivity (zone of growth inhibition) by purified S. aureus LTA", "setting": "[8]", "result": "not"},
      {"measurement": "fluorescence signal (pore formation)", "setting": "[9]; POPC-cholesterol liposomes with 0.1% lipid II", "result": "substantial increase in fluorescence signal"},
      {"measurement": "fluorescence signal (pore formation) compared to buffer control", "setting": "[9]; POPC-cholesterol liposomes without lipid II", "result": "no increase in fluorescence signal"}
    ]},
    {"compound": "tunicamycin", "values": [
      {"measurement": "LiaRS response", "setting": "[1]; B. subtilis, ref Mascher et al., 2004", "result": "positive LiaRS response"}
    ]}
  ]
}
